In the case of `CCCCCS(=O)(=O)NC(=O)c1ccc2nc(C)n(Cc3ccc(N(C)CCCC)cc3Cl)c2n1` [Example 45, 3-(4-((1-butyl)methylamino)-2-chlorobenzyl)-2-methyl-5-(1-pentanesulfonylcarbamoyl)-3H-imidazo[4,5-b]pyridine], the melting point was in the range of 129 to 130 °C. For `CCCCCN(C)c1ccc(Cn2c(C)nc3ccc(C(=O)NS(=O)(=O)CCCCC)nc32)c(Cl)c1` [Example 52, 3-(2-chloro-4-(methyl-(1-pentyl)amino)benzyl)-2-methyl-5-(1-pentanesulfonylcarbamoyl)-3H-imidazo[4,5-b]pyridine] the value was 83 to 85 °C; for `CCCCCS(=O)(=O)NC(=O)c1ccc2nc(C)n(Cc3ccc(N(C)CC4CCCCC4)cc3Cl)c2n1` [Example 53, 3-(2-chloro-4-(N-(cyclohexylmethyl)methylamino)benzyl)-2-methyl-5-(1-pentanesulfonylcarbamoyl)-3H-imidazo[4,5-b]pyridine], 169 to 170 °C. `CCCCCS(=O)(=O)NC(=O)c1ccc2nc(C)n(Cc3ncc(C(F)(F)F)cc3Cl)c2n1` [Example 57, 3-[(3-chloro-5-(trifluoromethyl)-2-pyridyl)methyl]-2-methyl-5-(1-pentanesulfonylcarbamoyl)-3H-imidazo[4,5-b]pyridine] registered a melting point of 169 to 170 °C.

Take `CCCNS(=O)(=O)NC(=O)c1ccc2nc(C)n(Cc3ccc(-c4ccccc4)cc3Cl)c2n1` [Example 60, 3-(2-chloro-4-phenylbenzyl)-2-methyl-5-[(1-propylaminosulfonyl)carbamoyl]-3H-imidazo[4,5-b]pyridine]: the melting point was 208 to 209 °C. On to `CCCCCS(=O)(=O)NC(=O)c1ccc2nc(C)n(Cc3ccc(N(C)C(=O)C(C)(C)C)cc3Cl)c2n1` [Example 64, 3-(2-chloro-4-(methyl(pivaloyl)amino)benzyl)-2-methyl-5-(1-pentanesulfonylcarbamoyl)-3H-imidazo[4,5-b]pyridine], for which the melting point was 207 to 208 °C. For `CCCCCOc1ccc(Cn2c(CC)nc3ccc(C(=O)NS(=O)(=O)CCCC)nc32)c(Cl)c1` [Example 66, 5-(1-butanesulfonylcarbamoyl)-3-(2-chloro-4-(1-pentyloxy)benzyl)-2-ethyl-3H-imidazo[4,5-b]pyridine] the value was 140 to 142 °C.

In the case of `CCCCS(=O)(=O)NC(=O)c1ccc2nc(CC)n(Cc3ccc(OCC4CCCCC4)cc3Cl)c2n1` [Example 67, 5-(1-butanesulfonylcarbamoyl)-3-(2-chloro-4-(cyclohexylmethyloxy)benzyl)-2-ethyl-3H-imidazo[4,5-b]pyridine], the melting point lay within 145 to 146 °C.

In turn, `CCCCCS(=O)(=O)NC(=O)c1ccc2nc(CC)n(Cc3ccc(OCC4CCCCC4)cc3Cl)c2n1` [Example 68, 3-(2-chloro-4-(cyclohexylmethyloxy)benzyl)-2-ethyl-5-(1-pentanesulfonylcarbamoyl)-3H-imidazo[4,5-b]pyridine] registered a melting point of 137 to 139 °C.

With `CCCCS(=O)(=O)NC(=O)c1ccc2nc(C)n(Cc3ccc(-c4ccco4)cc3Cl)c2n1` [Example 69, 5-(1-butanesulfonylcarbamoyl)-3-[2-chloro-4-(2-furyl)benzyl]-2-methyl-3H-imidazo[4,5-b]pyridine], the melting point was 208 to 209 °C.

Take `CCCCCS(=O)(=O)NC(=O)c1ccc2nc(C)n(Cc3ccc(-c4ccco4)cc3Cl)c2n1` [Example 70, 3-[2-chloro-4-(2-furyl)benzyl]-2-methyl-5-(1-pentanesulfonylcarbamoyl)-3H-imidazo[4,5-b]pyridine]: the melting point was 184 to 185 °C. `CCCCCS(=O)(=O)NC(=O)c1ccc2nc(C)n(Cc3ccc(N(CC)C(=O)OC(C)(C)C)cc3Cl)c2n1` [Example 72, 3-[4-(N-(tert-butoxycarbonyl)-N-ethylamino)-2-chlorobenzyl]-2-methyl-5-(1-pentanesulfonylcarbamoyl)-3H-imidazo[4,5-b]pyridine]: the melting point lay in the range of 131 to 132 °C. For `CCCCCS(=O)(=O)NC(=O)c1cc(C)c2nc(C)n(Cc3ccc(N(C)C(=O)OC(C)(C)C)cc3Cl)c2n1` [Example 77, 3-(4-(N-(tert-butoxycarbonyl)-N-methylamino)-2-chlorobenzyl)-2,7-dimethyl-5-(1-pentanesulfonylcarbamoyl)-3H-imidazo[4,5-b]pyridine] the value was 193 to 194 °C; for `CCCCCS(=O)(=O)NC(=O)c1cc(C)c2nc(C)n(Cc3ccc(N(CC)C(=O)OC(C)(C)C)cc3Cl)c2n1` [Example 81, 3-[4-(N-(tert-butoxycarbonyl)-N-ethylamino)-2-chlorobenzyl]-2,7-dimethyl-5-(1-pentanesulfonylcarbamoyl)-3H-imidazo[4,5-b]pyridine], 190 to 191 °C.

In turn, `CCCCCS(=O)(=O)NC(=O)c1ccc2nc(C)n(Cc3ccc(-n4cccc4)cc3Cl)c2n1` [Example 83, 3-(2-chloro-4-(1-pyrrolyl)benzyl)-2-methyl-5-(1-pentanesulfonylcarbamoyl)-3H-imidazo[4,5-b]pyridine] showed a melting point of 171 to 172 °C.

Consider `CCCCCS(=O)(=O)NC(=O)c1cc(C)c2nc(C)n(Cc3ccc(-c4ccco4)cc3Cl)c2n1` [Example 86, 3-[2-chloro-4-(2-furyl)benzyl]-2,7-dimethyl-5-(1-pentanesulfonylcarbamoyl)-3H-imidazo[4,5-b]pyridine], for which the melting point fell in the range of 177 to 178 °C. For `CCCCS(=O)(=O)NC(=O)c1cc(C)c2nc(C)n(Cc3ccc(-c4ccco4)cc3Cl)c2n1` [Example 88, 3-[2-chloro-4-(2-furyl)benzyl]-2,7-dimethyl-5-(1-butanesulfonylcarbamoyl)-3H-imidazo[4,5-b]pyridine] the value was 231 to 233 °C; for `CCCCCS(=O)(=O)NC(=O)c1ccc2nc(C)n(Cc3ccc(N(C)C(=O)OCCC)cc3Cl)c2n1` [Example 95, 3-(2-chloro-4-(N-methyl-N-(1-propoxycarbonyl)amino)benzyl)-2-methyl-5-(1-pentanesulfonylcarbamoyl)-3H-imidazo[4,5-b]pyridine], 169 to 170 °C; for `CCCCCS(=O)(=O)NC(=O)c1ccc2nc(C)n(Cc3ccc(N(C)C(=O)OC(C)C)cc3Cl)c2n1` [Example 96, 3-(2-chloro-4-(N-methyl-N-(isopropoxycarbonyl)amino)benzyl)-2-methyl-5-(1-pentanesulfonylcarbamoyl)-3H-imidazo[4,5-b]pyridine], 151 to 152 °C. Then `CCCCCS(=O)(=O)NC(=O)c1ccc2nc(C)n(Cc3ccc(NC(=O)OC(C)(C)C)cc3Cl)c2n1` [Example 97, 3-(4-(N-(tert-butoxycarbonyl)amino)-2-chlorobenzyl)-2-methyl-5-(1-pentanesulfonylcarbamoyl)-3H-imidazo[4,5-b]pyridine], with 222 to 224 °C. Then `CCC/C=C/S(=O)(=O)NC(=O)c1ccc2nc(C)n(Cc3ccc(NC(=O)OC(C)C)cc3Cl)c2n1` [Example 102, 3-(2-chloro-4-(N-(isopropoxycarbonyl)amino)benzyl)-2-methyl-5-((E)-1-penten-1-ylsulfonylcarbamoyl)-3H-imidazo[4,5-b]pyridine], with 187 to 189 °C; and `CCCCS(=O)(=O)NC(=O)c1ccc2nc(C)n(Cc3ccc(NC(=O)OC(C)C)cc3Cl)c2n1` [Example 103, 5-(1-butanesulfonylcarbamoyl)-3-(2-chloro-4-(N-(isopropoxycarbonyl)amino)benzyl)-2-methyl-3H-imidazo[4,5-b]pyridine], with 181 to 182 °C. Compound `CCCCCS(=O)(=O)NC(=O)c1ccc2nc(C)n(Cc3ccc(NC(=O)OC(C)C)cc3Cl)c2n1` [Example 108, 3-(4-(N-(isopropoxycarbonyl)amino)-2-chlorobenzyl)-2-methyl-5-(1-pentanesulfonylcarbamoyl)-3H-imidazo[4,5-b]pyridine] returned a melting point of 198 to 199 °C. For `CCCCS(=O)(=O)NC(=O)c1ccc2nc(C)n(Cc3ccc(NC(=O)OC(C)(C)C)cc3Cl)c2n1` [Example 109, 5-(1-butanesulfonylcarbamoyl)-3-(4-(N-t-butoxycarbonylamino)-2-chlorobenzyl)-2-methyl-3H-imidazo[4,5-b]pyridine] the value was 229 to 230 °C; for `CCCCS(=O)(=O)NC(=O)c1ccc2nc(C)n(Cc3ccc(NC(=O)OCC)cc3Cl)c2n1` [Example 111, 3-(4-ethoxycarbonylamino-2-chlorobenzyl)-2-methyl-5-(1-butanesulfonylcarbamoyl)-3H-imidazo[4,5-b]pyridine], 236 to 237 °C; for `CCC/C=C/S(=O)(=O)NC(=O)c1ccc2nc(C)n(Cc3ccc(NC(=O)OC(C)(C)C)cc3Cl)c2n1` [Example 112, 3-(4-(N-t-butoxycarbonylamino)-2-chlorobenzyl)-2-methyl-5-((E)-1-penten-1-ylsulfonylcarbamoyl)-3H-imidazo[4,5-b]pyridine], 215 to 216 °C. Then `CCC/C=C/S(=O)(=O)NC(=O)c1ccc2nc(C)n(Cc3ccc(NC(=O)OCC)cc3Cl)c2n1` [Example 114, 3-(4-ethoxycarbonylamino-2-chlorobenzyl)-2-methyl-5-((E)-1-penten-1-ylsulfonylcarbamoyl)-3H-imidazo[4,5-b]pyridine], with 233 to 234 °C.

As for `CCCCCS(=O)(=O)NC(=O)c1ccc2nc(C)n(Cc3ccc4c(nc(C)n4C)c3Cl)c2n1` [Example 120, 3-[(4-chloro-1,2-dimethyl-1H-benzimidazol-5-yl)methyl]-2-methyl-5-(1-pentanesulfonylcarbamoyl)-3H-imidazo[4,5-b]pyridine], the melting point lay within 229 to 231 °C. For `CCCCCS(=O)(=O)NC(=O)c1ccc2nc(C)n(Cc3ncc(Cl)cc3Cl)c2n1` [Example 123, 3-[(3,5-dichloropyridin-2-yl)methyl]-2-methyl-5-(1-pentanesulfonylcarbamoyl)-3H-imidazo[4,5-b]pyridine] the value was 155 to 156 °C.

As for `CCCCCS(=O)(=O)NC(=O)c1ccc2nc(C)n(Cc3ccc(-c4ccccc4)nc3Cl)c2n1` [Example 127, 3-[(2-chloro-6-phenylpyridin-3-yl)methyl]-2-methyl-5-(1-pentanesulfonylcarbamoyl)-3H-imidazo[4,5-b]pyridine], the melting point was in the range of 224 to 225 °C.
